{"source": "paper PMC6688182", "about": "(Peptides, 2017)", "key": {"AT2 and AT1 sites": {"system": "AT2 and AT1 sites", "conditions": "ref [4],[30],[31],[35]; cited from earlier work"}, "[1]": {"system": "Mas-related receptor MrgD", "conditions": "aortic rings; ref [19]; cited from earlier work"}, "[2]": {"system": "Ang-(1–7)-dependent vasorelaxation of the isolated renal artery", "experiment": "Effect of angiotensin receptor antagonists on Ang-", "parameters": "species or system male Wistar rat", "conditions": "for Effect of receptor antagonist on Ang-(1–7)-induced vasorelaxation (in words): DALA, DPRO, Sarthran 10^−5 M, losartan, PD123319 10^−6 M, 20 min"}, "mesenteric artery": {"system": "mesenteric artery", "conditions": "ref [21]; cited from earlier work"}, "aortic segments": {"system": "aortic segments", "conditions": "ref [28]; cited from earlier work"}, "[3]": {"system": "Ang-(1–7)-dependent vasorelaxation of the isolated renal artery", "experiment": "Effect of K+ channel blockers on Ang-", "parameters": "species or system male Wistar rat", "conditions": "glibenclamide 10^−5 M; PE 3 × 10^−7 M; mean ± SEM, N = 8; * P < 0.05 vs. control"}, "[4]": {"system": "anti-nociceptive actions of Ang-(1–7)", "conditions": "ref [13]; cited from earlier work"}, "afferent arterioles": {"system": "afferent arterioles", "conditions": "ref [24]; cited from earlier work"}, "SHR and WKY rats": {"system": "SHR and WKY rats", "conditions": "SHR and WKY rats following AT1 receptor blockade; ref [36]; cited from earlier work"}, "[5]": {"system": "Ang-(1–7)-dependent vasorelaxation of the isolated renal artery", "experiment": "Effect of NOS, soluble guanylate cyclase and cyclooxygenase inhibitors on Ang-", "parameters": "species or system male Wistar rat", "conditions": "for Maximal vasorelaxation response to Ang-(1–7) in presence of L-NAME / Effect of signaling inhibitor on Ang-(1–7)-induced vasorelaxation (in words): L-NAME 10^−4 M; for Maximal vasorelaxation response to Ang-(1–7) in presence of L-NAME: N = 6; for Effect of signaling inhibitor on Ang-(1–7)-induced vasorelaxation (in words): indomethacin 10^−6 M"}, "bovine endothelial cells": {"system": "bovine endothelial cells", "conditions": "cited from earlier work; for Effect on NO stimulation by Ang-(1–7) or AVE0991: bovine endothelial cells, ref [14],[37]"}, "mesenteric vessels": {"system": "mesenteric vessels", "conditions": "rat mesentery; ref [20]; cited from earlier work"}, "older WKY rats": {"system": "older WKY rats", "conditions": "20 months, ref [5]; cited from earlier work"}, "[6]": {"system": "blood flow in multiple vascular beds", "conditions": "kidney, mesentery and skin; ref [27]; cited from earlier work"}, "[7]": {"system": "Ang-(1–7)-dependent vasorelaxation of the isolated renal artery", "experiment": "Effect of bradykinin B2 receptor antagonist on Ang-", "parameters": "species or system male Wistar rat"}, "blood pressure": {"system": "blood pressure", "conditions": "ref [1],[16],[17]; cited from earlier work"}, "AT2 receptor": {"target": "T1, AT2 receptor (Rattus norvegicus, UniProt P35351)", "T1 sequence (P35351 1-363)": "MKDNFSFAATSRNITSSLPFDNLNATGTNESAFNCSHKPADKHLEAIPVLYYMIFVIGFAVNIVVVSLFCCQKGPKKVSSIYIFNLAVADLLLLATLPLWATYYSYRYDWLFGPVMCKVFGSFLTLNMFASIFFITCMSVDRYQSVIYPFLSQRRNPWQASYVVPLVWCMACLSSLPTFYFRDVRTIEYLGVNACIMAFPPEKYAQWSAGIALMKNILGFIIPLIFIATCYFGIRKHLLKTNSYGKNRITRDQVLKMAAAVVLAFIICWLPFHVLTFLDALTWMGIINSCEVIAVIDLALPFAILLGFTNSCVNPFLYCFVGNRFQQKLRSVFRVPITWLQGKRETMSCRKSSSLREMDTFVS", "experiment": "Competition of 125I-Sarthran binding in AR42J pancreatic cell membranes", "conditions": "0.2 nM 125I-Sarthran, antagonists up to 10^−5 M, n = 3"}}, "note": "Values joined by “and” are separate entries in the source; they are usually repeats but may differ in a detail not shown here. Equal entries are not always repeated. “Also recorded” adds a separate entry of the source."}
{"compound": "[D-Proline^7]-Ang-(1–7) [D-Pro^7-Ang-(1–7)]", "values": [{"measurement": "Action at AT2 and AT1 sites", "setting": "AT2 and AT1 sites", "value": "lack of actions at AT2 and AT1 sites"}, {"measurement": "Effect on the effects of [Ala^1]-Ang-(1–7)", "setting": "[1]", "value": "abolished the effects of [Ala^1]-Ang-(1–7)"}, {"measurement": "Effect of receptor antagonist on Ang-(1–7)-induced vasorelaxation (in words)", "setting": "[2]", "value": "significantly inhibited; also recorded: essentially abolished"}]}
{"compound": "CCCCc1nc(Cl)c(CO)n1Cc1ccc(-c2ccccc2-c2nn[nH]n2)cc1", "note": "[Losartan]", "values": [{"measurement": "Effect on vasorelaxation of the mesenteric artery by Ang-(1–7)", "setting": "mesenteric artery", "value": "blocked"}, {"measurement": "Effect on Ang-(1–7)-dependent relaxation of aortic segments", "setting": "aortic segments", "value": "no inhibitory effect"}, {"measurement": "Maximal vasorelaxation response to Ang-(1–7) in presence of antagonist", "setting": "[2]", "value": "22 ± 6", "unit": "%"}, {"measurement": "Effect of receptor antagonist on Ang-(1–7)-induced vasorelaxation (in words)", "setting": "[2]", "value": "significantly attenuated"}]}
{"compound": "COc1ccc(Cl)cc1C(=O)NCCc1ccc(S(=O)(=O)NC(=O)NC2CCCCC2)cc1", "note": "[Glibenclamide]", "values": [{"measurement": "Maximal vasorelaxation response to Ang-(1–7) in presence of glibenclamide", "setting": "[3]", "value": "22.3 ± 2.3 ^* %"}, {"measurement": "Effect on anti-nociceptive actions of Ang-(1–7)", "setting": "[4]", "value": "abolished the anti-nociceptive actions of Ang-(1–7)"}]}
{"compound": "CCc1nc2c(C)cc(C)nc2n1Cc1ccc(-c2ccccc2-c2nn[nH]n2)cc1", "note": "[L158809]", "values": [{"measurement": "Effect on Ang-(1–7)-induced vasodilation of renal afferent arterioles", "setting": "afferent arterioles", "value": "not reversed"}]}
{"compound": "COC(=O)[C@@H](N)CCCNC(N)=N[N+](=O)[O-]", "note": "[L-NAME, nitro-l-arginine methyl ester]", "values": [{"measurement": "Effect on depressor effects of Ang-(1–7)", "setting": "SHR and WKY rats", "value": "sensitive"}, {"measurement": "Maximal vasorelaxation response to Ang-(1–7) in presence of L-NAME", "setting": "[5]; Ang-(1–7) 10^−12 to 10^−6 M, PE 3 × 10^−7 M, mean ± SEM, * P < 0.05 vs. control", "value": "13.4 ± 2.0 ^* %"}, {"measurement": "Maximal vasorelaxation response to Ang-(1–7) in presence of L-NAME", "setting": "[5]; Ang-(1–7) 10^−12 to 10^−6 M, PE 3 × 10^−7 M, mean ± SEM, * P < 0.05 vs. control, listed as LNAME", "value": "13 ± 2", "unit": "%"}, {"measurement": "Effect of signaling inhibitor on Ang-(1–7)-induced vasorelaxation (in words)", "setting": "[5]; ODQ 10^−5 M", "value": "attenuated the Ang-(1–7) response"}, {"measurement": "Effect on NO stimulation by Ang-(1–7) or AVE0991", "setting": "bovine endothelial cells", "value": "blocked"}, {"measurement": "Effect on Ang-(1–7)-dependent dilation of mesenteric vessels", "setting": "mesenteric vessels", "value": "inhibition of the Ang-(1–7) vasorelaxant effects"}]}
{"compound": "CCOc1nc2cccc(C(=O)O)c2n1Cc1ccc(-c2ccccc2-c2nnn[nH]2)cc1", "note": "[candesartan]", "values": [{"measurement": "Effect on Ang-(1–7)-dependent NO release", "setting": "bovine endothelial cells; ref [14]", "value": "attenuated Ang-(1–7)-dependent NO release"}, {"measurement": "Effect on vasorelaxation of the mesenteric artery by Ang-(1–7)", "setting": "mesenteric artery", "value": "blocked"}]}
{"compound": "O=c1onc2cnc3ccccc3n12", "note": "[ODQ, 1H-[1,2,4] oxadiazolo-quinoxalin]", "values": [{"measurement": "Maximal vasorelaxation response to Ang-(1–7) in presence of ODQ", "setting": "[5]; ODQ 10^−5 M, Ang-(1–7) 10^−12 to 10^−6 M, PE 3 × 10^−7 M, mean ± SEM, N = 8, * P < 0.05 vs. control", "value": "10 ± 2% and 10.0 ± 2.1 ^* %"}]}
{"compound": "[D-Alanine^7]-Ang-(1–7) [D-Ala^7-Ang-(1–7)]", "values": [{"measurement": "Effect on depressor actions of Ang-(1–7)", "setting": "older WKY rats", "value": "blocked the depressor actions of Ang-(1–7)"}, {"measurement": "Effect on NO stimulation by Ang-(1–7) or AVE0991", "setting": "bovine endothelial cells", "value": "blocked"}, {"measurement": "Effect on increase in blood flow by Ang-(1–7)", "setting": "[6]", "value": "abolished"}, {"measurement": "Effect on vasorelaxation of the mesenteric artery by Ang-(1–7)", "setting": "mesenteric artery", "value": "blocked"}, {"measurement": "Effect on Ang-(1–7)-dependent relaxation of aortic segments", "setting": "aortic segments", "value": "abolished"}, {"measurement": "Action at AT2 and AT1 sites", "setting": "AT2 and AT1 sites", "value": "lack of actions at AT2 and AT1 sites"}, {"measurement": "Effect on the effects of [Ala^1]-Ang-(1–7)", "setting": "[1]", "value": "ineffective"}, {"measurement": "Effect on Ang-(1–7)-induced vasodilation of renal afferent arterioles", "setting": "afferent arterioles", "value": "abolished"}, {"measurement": "Effect on Ang-(1–7)-dependent dilation of mesenteric vessels", "setting": "mesenteric vessels", "value": "sensitivity to DALA blockade"}, {"measurement": "Effect of receptor antagonist on Ang-(1–7)-induced vasorelaxation (in words)", "setting": "[2]", "value": "significantly inhibited; also recorded: essentially abolished"}]}
{"compound": "HOE140", "values": [{"measurement": "Effect on depressor effects of Ang-(1–7)", "setting": "SHR and WKY rats", "value": "sensitive"}, {"measurement": "Effect on NO stimulation by Ang-(1–7) or AVE0991", "setting": "bovine endothelial cells", "value": "blocked"}, {"measurement": "Effect of B2 antagonist on Ang-(1–7)-induced vasorelaxation (in words)", "setting": "[7]; HOE140 5 × 10^−8 M, alone or with L-NAME 10^−4 M", "value": "markedly inhibited the vasorelaxation to Ang-(1–7); also recorded: significantly attenuated"}, {"measurement": "Maximal vasorelaxation response to Ang-(1–7) in presence of HOE140", "setting": "[7]; HOE140 5 × 10^−8 M, PE 3 × 10^−7 M, mean ± SEM, N = 9, * P < 0.05 vs. control 42.4 ± 5.8", "value": "14.0 ± 7.0 ^* %"}, {"measurement": "Ang-(1–7)-induced relaxation (maximal response) in presence of HOE140", "setting": "[7]; HOE140 10^−6 M as printed in the abstract, PE 3 × 10^−7 M, mean ± SEM", "value": "14 ± 7", "unit": "%"}]}
{"compound": "COc1ccc2c(c1)c(CC(=O)O)c(C)n2C(=O)c1ccc(Cl)cc1", "note": "[Indomethacin]", "values": [{"measurement": "Effect of signaling inhibitor on Ang-(1–7)-induced vasorelaxation (in words)", "setting": "[5]; ODQ 10^−5 M", "value": "failed to block the Ang-(1–7) response"}, {"measurement": "Effect on blood pressure-lowering effects of Ang-(1–7)", "setting": "blood pressure", "value": "attenuated the blood pressure-lowering effects of the peptide"}, {"measurement": "Effect on Ang-(1–7)-dependent dilation of mesenteric vessels", "setting": "mesenteric vessels", "value": "inhibition of the Ang-(1–7) vasorelaxant effects"}]}
{"compound": "Cc1cc(Cn2cnc3c2C[C@@H](C(=O)O)N(C(=O)C(c2ccccc2)c2ccccc2)C3)ccc1N(C)C", "note": "[PD123319]", "values": [{"measurement": "Effect on depressor effects of Ang-(1–7)", "setting": "SHR and WKY rats", "value": "abolished"}, {"measurement": "Effect on depressor actions of Ang-(1–7)", "setting": "older WKY rats", "value": "blocked the depressor actions of Ang-(1–7)"}, {"measurement": "Effect on NO stimulation by Ang-(1–7) or AVE0991", "setting": "bovine endothelial cells", "value": "blocked"}, {"measurement": "Competition of 125I-Sarthran binding (in words)", "setting": "AT2 receptor", "value": "essentially abolished binding"}, {"measurement": "Effect on vasorelaxation of the mesenteric artery by Ang-(1–7)", "setting": "mesenteric artery", "value": "but not the AT2 antagonist PD123319"}, {"measurement": "Effect on Ang-(1–7)-dependent relaxation of aortic segments", "setting": "aortic segments", "value": "no inhibitory effect"}, {"measurement": "Effect on the effects of [Ala^1]-Ang-(1–7)", "setting": "[1]", "value": "abolished the effects of [Ala^1]-Ang-(1–7)"}, {"measurement": "Effect on Ang-(1–7)-induced vasodilation of renal afferent arterioles", "setting": "afferent arterioles", "value": "not reversed"}, {"measurement": "Effect of receptor antagonist on Ang-(1–7)-induced vasorelaxation (in words)", "setting": "[2]", "value": "significantly attenuated"}]}
